Starred links: 1 amine or outer side, 2 acyl side, 3 side chain; linkers in the order of their positions; H or OH if unused. Positions of bridges follow the written chain, without caps; N, C: chain ends. Non-standard residues stand in square brackets, D forms with d. Residues, ends and D or L forms follow the SMILES beside them. *: point of attachment. X1 = CCOCc1nc2c(NC(=O)OCCSSC(C)CCC(=O)*)nc3ccccc3c2n1CC(C)(C)O; 1Nal = N[C@@H](Cc1cccc2ccccc12)C(=O)O; TBMB = c1c(C[*:1])cc(C[*:3])cc1C[*:2]; Tle = CC(C)(C)[C@H](N)C(=O)O; βAla = NCCC(=O)O; Sar = CNCC(=O)O
Legend:
[1] = Plasma stability, rat; format: in vitro ADME; settings: pH 7.4; rat plasma, 2 μM, 37° C.; read-out: T1/2 (rat)
[2] = system: B16F10 xenograft; experiment: In vivo efficacy of I-8 alone or with antiPD-1 mAb in B16F10 xenograft; design: species or system C57BL/6J mice
Method: B16F10 tumor cells were maintained in vitro as a monolayer culture in EMEM medium supplemented with 10% heat inactivated fetal bovine serum at 37° C. in an atmosphere of 5% CO2 in air. The tumor cells were routinely subcultured twice weekly by trypsin-EDTA treatment. The cells growing in an exponential growth phase were harvested and counted for tumor inoculation.
6-8 week old female C57BL/6J mice were inoculated subcutaneously at the right flank with B16F10 tumor cells (5×10^5) in 0.1 ml of PBS for tumor development. Animals were randomized when the average tumor volume reached 65 mm^3.
Conjugates were formulated in 25 mM Histidine, 10% sucrose pH=7 buffer (vehicle) and administered intravenously. Anti-PD1 antibody (Wuxi AppTech, Shanghai, China) was formulated in aqueous buffer and administered intraperitoneally.
Tumor volume was measured three times weekly in two dimensions using a caliper, and the volume was expressed in mm^3 using the formula: V=0.5 a×b^2 where a and b are the long and short diameters of the tumor, respectively. The tumor size was then used for calculations of T/C value. The T/C value (in percent) is an indication of antitumor effectiveness; T and C are the mean volumes of the treated and control groups, respectively, on a given day.
TGI was calculated for each group using the formula: TGI (%)=[1−(Ti−T0)/(Vi−V0)]×100; Ti is the average tumor volume of a treatment group on a given day, T0 is the average tumor volume of the treatment group on the day of treatment start, Vi is the average tumor volume of the vehicle control group on the same day with Ti, and V0 is the average tumor volume of the vehicle group on the day of treatment start.
Summary statistics, including mean and the standard error of the mean (SEM), are provided for the tumor volume of each group at each time point.
Statistical analysis of difference in tumor volume among the groups was conducted on the data obtained at the best therapeutic time point after the final dose.
A one-way ANOVA was performed to compare tumor volume among groups, and when a significant F-statistics (a ratio of treatment variance to the error variance) was obtained, comparisons between groups were carried out with Games-Howell test. All data were analyzed using Prism. P<0.05 was considered to be statistically significant.

[3] = molecular target: T1, human TLR7 (Homo sapiens, UniProt Q9NYK1); experiment: Human TLR7 receptor activation, HEK293 reporter cell line; format: cell-based; settings: HEK293 reporter cells, 16 hours
T1 construct: host or cells: HEK293 reporter cell line
T1 sequence (Q9NYK1 27-1049): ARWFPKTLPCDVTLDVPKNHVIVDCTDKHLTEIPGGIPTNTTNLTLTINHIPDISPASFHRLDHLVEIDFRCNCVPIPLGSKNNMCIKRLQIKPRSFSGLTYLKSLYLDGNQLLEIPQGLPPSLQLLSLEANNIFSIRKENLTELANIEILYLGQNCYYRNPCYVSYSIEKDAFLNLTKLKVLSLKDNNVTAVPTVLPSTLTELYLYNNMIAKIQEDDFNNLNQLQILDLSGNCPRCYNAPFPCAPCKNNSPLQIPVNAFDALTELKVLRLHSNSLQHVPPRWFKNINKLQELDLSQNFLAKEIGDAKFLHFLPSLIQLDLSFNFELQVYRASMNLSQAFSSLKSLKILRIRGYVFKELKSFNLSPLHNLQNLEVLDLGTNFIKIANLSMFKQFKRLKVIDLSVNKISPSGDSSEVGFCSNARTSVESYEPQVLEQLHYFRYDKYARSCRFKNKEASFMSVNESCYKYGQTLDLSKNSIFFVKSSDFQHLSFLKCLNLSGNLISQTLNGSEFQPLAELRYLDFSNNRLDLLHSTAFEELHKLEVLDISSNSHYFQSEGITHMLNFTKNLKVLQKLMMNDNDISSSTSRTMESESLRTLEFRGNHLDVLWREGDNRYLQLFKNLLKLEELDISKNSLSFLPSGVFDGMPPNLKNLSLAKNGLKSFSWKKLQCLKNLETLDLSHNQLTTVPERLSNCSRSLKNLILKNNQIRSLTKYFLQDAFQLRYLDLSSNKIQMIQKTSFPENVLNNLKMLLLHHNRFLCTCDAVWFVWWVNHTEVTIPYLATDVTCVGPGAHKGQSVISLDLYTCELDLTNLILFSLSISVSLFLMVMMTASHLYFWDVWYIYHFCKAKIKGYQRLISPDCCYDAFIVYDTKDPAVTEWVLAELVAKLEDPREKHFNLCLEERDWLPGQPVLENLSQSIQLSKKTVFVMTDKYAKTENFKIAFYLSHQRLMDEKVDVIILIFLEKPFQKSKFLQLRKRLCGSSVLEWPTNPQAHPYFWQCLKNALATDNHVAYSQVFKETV
Method: Compounds were tested for their activity to activate human TLR7 and TLR8 receptors using HEK293 reporter cell lines engineered to express respective receptors in accordance to manufacturer's instructions (InvivoGen). […] Incubation was for 16 hours at 37° C. and […]. Absorption at 655 nm was read on […]. Data was fitted using PRISM.

[4] = Study 2, day 9, I-8 20 mpk iv tiw, aPD1 10 mpk ip qw

Question: Which half-life at 2 μM [1] does the source give for `CCOCc1nc2c(NC(=O)OCCSSC(C)CCC(=O)NCCC(=O)N(C)CC(=O)N(C)CC(=O)N(C)CC(=O)N(C)CC(=O)N(C)CC(=O)N(C)CC(=O)N(C)CC(=O)N(C)CC(=O)N(C)CC(=O)N(C)CC(=O)N[C@@H](C)C(=O)N[C@H]3CSCc4cc5cc(c4)CSC[C@H](NC(=O)[C@@H](C)NC(=O)[C@H](Cc4cccc6ccccc46)NC(=O)[C@H](CCC(=O)O)NC(=O)[C@H](CC(N)=O)NC(=O)[C@@H](C)NC3=O)C(=O)N[C@@H](CCC(=O)O)C(=O)N[C@@H](CC(=O)O)C(=O)N[C@@H](Cc3ccccc3)C(=O)N[C@@H](Cc3ccc(O)cc3)C(=O)N[C@@H](CC(=O)O)C(=O)N[C@@H](C(C)(C)C)C(=O)N[C@H](C(N)=O)CSC5)nc3ccccc3c2n1CC(C)(C)O` (some centres unmarked) [I-8] ({X1-βAla}-[Sar][Sar][Sar][Sar][Sar][Sar][Sar][Sar][Sar][Sar]AC[dA]NE[1Nal][dA]CEDFYD[Tle]C-NH2; linker 12-18-25 via TBMB) here?
Answer: The half-life at 2 μM was < 2 h.

Question: And the T/C ([2]; Study 1, 20 mpk iv tiw, day 9)?
Answer: The T/C was 54.9%.

Question: And the TGI ([2]; Study 1, 20 mpk iv tiw, day 9)?
Answer: Its TGI is 50.0%.

Question: What about the “Tumor Volume (Mean ± SEM)” value ([2]; Study 1, 20 mpk iv tiw, day 9) of the same compound?
Answer: The value was 356 ± 60 mm^3.

Question: What about the T/C ([2]; Study 1, 60 mpk iv tiw, day 9) of the same compound?
Answer: Its T/C is 25.6%.

Question: And the TGI ([2]; Study 1, 60 mpk iv tiw, day 9)?
Answer: The TGI was 82.9%.

Question: What about the “Tumor Volume (Mean ± SEM)” value ([2]; Study 1, 60 mpk iv tiw, day 9) of the same compound?
Answer: Its value is 166 ± 26 mm^3.

Question: What about the T/C [2, 4] of the same compound?
Answer: The T/C was 86.8%.

Question: And the TGI [2, 4]?
Answer: The TGI was 13.7%.

Question: What about the “Tumor Volume (Mean ± SEM)” value [2, 4] of the same compound?
Answer: Its value is 1678 ± 1129 mm^3.

Question: And the “hTLR7 activation potency versus naked payload resiquimod” value [3]?
Answer: The value was “considerably reduced potency or inactivity”.
